Counter-ions that a name gives are not always drawn.
Tests used:
S. aureus (CiproS) = assay: In vitro MIC, agar dilution; assay type: cell-based; conditions: Staphylococcus aureus
S. aureus (CiproR) = assay: In vitro MIC, agar dilution; assay type: cell-based; conditions: Staphylococcus aureus
S. pneumoniae (PenS) = assay: In vitro MIC, agar dilution; assay type: cell-based; conditions: Streptococcus pneumoniae
S. pneumoniae (PenR) = assay: In vitro MIC, agar dilution; assay type: cell-based; conditions: Streptococcus pneumoniae
E. faecium (CiproS) = assay: In vitro MIC, agar dilution; assay type: cell-based; conditions: Enterococcus faecium
E. faecium (CiproR) = assay: In vitro MIC, agar dilution; assay type: cell-based; conditions: Enterococcus faecium, read-out: MIC Range
E. faecalis (VanS) = assay: In vitro MIC, agar dilution; assay type: cell-based; conditions: Enterococcus faecalis
Enterococcus spp. (VanR) = assay: In vitro MIC, agar dilution; assay type: cell-based
E. coli = assay: In vitro MIC, agar dilution; assay type: cell-based; conditions: Escherichia coli, 25 isolates
Procedure: Each plate was inoculated with 1:100 (or 1:10 for slow-growing strains, primarily Micrococcus and Streptococcus) dilutions of up to 32 different microorganisms, using a Steers replicator block calibrated to deliver approximately 10^4 colony forming units (CFU's). The inoculated plates were incubated at from about 35° C. to about 37 ° C. for approximately 20-24 hours. In addition, a control plate using BHI agar containing no test compound was prepared and incubated at the beginning and at the end of each test. The quinolone antibacterial ciprofloxacin was used as a control ("Cntl").
The numbers below the microorganism species indicate the nunbers of isolates tested. […] The MIC is defined as the lowest concentration of test compound yielding no growth (a slight haze or sparsely isolated colonies at the inoculum spot) as compared to the growth control containing no test compound.

P. aeruginosa (CiproS) = assay: In vitro MIC, agar dilution; assay type: cell-based; conditions: Pseudomonas aeruginosa
P. aeruginosa (CiproR) = assay: In vitro MIC, agar dilution; assay type: cell-based; conditions: Pseudomonas aeruginosa, P. aeruginosa (CiproR), 20 isolates
B. fragilis = assay: In vitro MIC, agar dilution; assay type: cell-based; conditions: Bacteroides fragilis
[1] = mouse, in vivo, ip, 100 mg/kg
in vivo = conditions: mouse, ip
[2] = test system: staphylococcus aureus NTCC 10649; assay: In vivo efficacy, mouse infection (ED50); conditions: Staphylococcus aureus, NTCC10649, in Mus musculus, 168 h
[3] = test system: Streptococcus pneumoniae 6303; assay: In vivo efficacy, mouse infection (ED50); conditions: Streptococcus pneumoniae, 6303, in Mus musculus, 168 h
Escherichia coli JUHL = assay: In vivo efficacy, mouse infection (ED50); conditions: Escherichia coli, in Mus musculus, 168 h

## Cc1c(N2CC[C@H](N)C2)c(F)cn2c(=O)c(C(=O)O)cc(C3CC3)c12 [Example 2, 1-cyclopropyl-8-(3(S)-3-amino-1-pyrrolidinyl)-7-fluoro-9-methvl-4-oxo-4H-quinolizine-3-carboxylic acid hydrochloride]
S. aureus (CiproS)
  MIC90: 0.015 µg/mL
S. aureus (CiproS); S. aureus (CiproS), 21 isolates, read-out: MIC50
  MIC50: 0.008 µg/mL
S. aureus (CiproS); S. aureus (CiproS), 21 isolates, read-out: MIC Range
  MIC: 0.008 to 0.015 µg/mL
S. aureus (CiproR)
  MIC90: 0.25 µg/mL
S. aureus (CiproR); S. aureus (CiproR), 25 isolates, read-out: MIC50
  MIC50: 0.25 µg/mL
S. aureus (CiproR); S. aureus (CiproR), 25 isolates, read-out: MIC Range
  MIC: 0.03 to 1 µg/mL
S. pneumoniae (PenS)
  MIC50: 0.03 µg/mL
  MIC90: 0.03 µg/mL
S. pneumoniae (PenS); S. pneumoniae (PenS), 20 isolates, read-out: MIC Range
  MIC: 0.015 to 0.03 µg/mL
S. pneumoniae (PenR)
  MIC50: 0.03 µg/mL
  MIC90: 0.03 µg/mL
S. pneumoniae (PenR); S. pneumoniae (PenR), 25 isolates, read-out: MIC Range
  MIC: 0.03 µg/mL
E. faecium (CiproS)
  MIC90: 0.25 µg/mL
E. faecium (CiproS); read-out: MIC Range
  MIC: 0.25 to 0.5 µg/mL
E. faecium (CiproS); E. faecium (CiproS), 16 isolates, read-out: MIC50
  MIC50: 0.25 µg/mL
E. faecium (CiproR)
  MIC: 0.5 to 2 µg/mL
E. faecalis (VanS)
  MIC90: 0.12 µg/mL
E. faecalis (VanS); E. faecalis (VanS), 17 isolates, read-out: MIC50
  MIC50: 0.06 µg/mL
E. faecalis (VanS); E. faecalis (VanS), 17 isolates, read-out: MIC Range
  MIC: 0.03 to 0.12 µg/mL
Enterococcus spp. (VanR); Enterococcus
  MIC90: 0.25 µg/mL
Enterococcus spp. (VanR); Enterococcus spp. (VanR), 21 isolates, read-out: MIC50
  MIC50: 0.25 µg/mL
Enterococcus spp. (VanR); Enterococcus spp. (VanR), 21 isolates, read-out: MIC Range
  MIC: 0.12 to 2 µg/mL
E. coli
  MIC: 0.004 to 0.015 µg/mL
E. coli; read-out: MIC50
  MIC50: 0.004 µg/mL
E. coli; read-out: MIC90
  MIC90: 0.008 µg/mL
P. aeruginosa (CiproS)
  MIC90: 0.25 µg/mL
P. aeruginosa (CiproS); P. aeruginosa (CiproS), 24 isolates, read-out: MIC50
  MIC50: 0.06 µg/mL
P. aeruginosa (CiproS); P. aeruginosa (CiproS), 24 isolates, read-out: MIC Range
  MIC: 0.015 to 0.5 µg/mL
P. aeruginosa (CiproR); read-out: MIC50
  MIC50: 2 µg/mL
P. aeruginosa (CiproR); read-out: MIC90
  MIC90: 2 µg/mL
P. aeruginosa (CiproR); read-out: MIC Range
  MIC: 1 to 4 µg/mL
B. fragilis
  MIC90: 0.5 µg/mL
B. fragilis; read-out: MIC Range
  MIC: 0.06 to 0.5 µg/mL
B. fragilis; B. fragilis, 18 isolates, read-out: MIC50
  MIC50: 0.12 µg/mL
[1]
  body weight loss: 38%
In vivo
  LD50 at 504 h: 38.8 mg/kg
[2]; po
  ED50: 3.4 mg/kg
[2]; sc
  ED50: 0.6 mg/kg
[3]; po
  ED50: 5.3 mg/kg
[3]; sc
  ED50: 1.6 mg/kg
Escherichia coli JUHL; po
  ED50: 0.6 mg/kg
Escherichia coli JUHL; sc
  ED50: 0.1 mg/kg

Source: patent publication US5977133A, “Pyridone antibiotic with improved safety profile” (priority 1998, dated 1999)
